In ChEMBL document CHEMBL3137667, “[Drug-induced liver injury; fourteenth updated edition of the bibliographic database of liver injuries and related drugs]” (Gastroenterol Clin Biol, 2004):

Assays:
[1] = human
[2] = human; remark: listed apart in the source
[3] = human; remark: listed apart in the source
[4] = human; remark: listed apart in the source
[5] = human, serum, 4383 h
[6] = human; remark: listed apart in the source
[7] = Highest frequency of moderate liver toxicity observed during clinical trials, expressed as a percentage. [column '% BIOL' in source]; settings: human
[8] = human; remark: listed apart in the source
[9] = human, serum
[10] = human; remark: listed apart in the source
[11] = Highest frequency of acute liver toxicity observed during clinical trials, expressed as a percentage. [column '% AIGUE' in source]; settings: human
[12] = human, serum; remark: listed apart in the source
[13] = Times to onset, minimal and maximal, observed in the indexed observations. [column 'DELAI' in source]; settings: human
[14] = human; remark: listed apart in the source
[15] = human; remark: listed apart in the source
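For Hepatotoxicity (association with vascular disease) in this document: count of indexed literature references reporting vascular liver injury in humans, e.g. peliosis hepatitis, hepatic veno-occlusive disease or Budd-Chiari syndrome.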
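For Hepatotoxicity (benign tumour) in this document: value is a count of indexed literature references citing a benign tumour confirmed by histopathology.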
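For Hepatotoxicity (choleostasis) in this document: human cholestatic liver injury, shown by histopathology or by peak ALT or AST elevation over alkaline phosphatase ratio below 2, value counts indexed literature reports.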
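For Hepatotoxicity (chronic liver disease) in this document: chronic liver injury confirmed by histopathology or persistently raised serum aminotransferase activity beyond 6 months, value given as the count of indexed literature references.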
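For Hepatotoxicity (cirrhosis) in this document: value is a count of indexed literature references reporting cirrhosis confirmed by histopathology.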
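For Hepatotoxicity (cytolytic) in this document: human cytolytic liver injury, shown by histopathology or by a ratio above 5 of peak ALT or AST elevation to alkaline phosphatase elevation, value counts indexed references.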
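For Hepatotoxicity (granulomatous hepatitis) in this document: value is a count of indexed literature references reporting granulomatous liver disease confirmed by histopathology.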
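For Hepatotoxicity (malignant tumour) in this document: malignant tumour confirmed by histopathology, value gives the count of indexed literature references reporting it.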
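For Hepatotoxicity (severe hepatitis) in this document: human clinical data: severe hepatitis, meaning potentially life-threatening liver failure or clinically observed cases, the value counts how many indexed literature references report it.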
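For Hepatotoxicity (steatosis) in this document: steatosis confirmed by histopathology, value is the count of indexed references.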

Structure (SMILES) | Hepatotoxicity (choleostasis) [1] | Hepatotoxicity (steatosis) [2] | Hepatotoxicity (cytolytic) [3] | Hepatotoxicity (granulomatous hepatitis) [4] | Hepatotoxicity (chronic liver disease) [5] | Hepatotoxicity (severe hepatitis) [6] | Hepatotoxicity (moderate) [7] | Hepatotoxicity (malignant tumour) [8] | Hepatotoxicity (acute) [9] | Hepatotoxicity (association with vascular disease) [10] | Hepatotoxicity (acute) [11] | Hepatotoxicity (moderate) [12] | Hepatotoxicity (time to onset) [13] | Hepatotoxicity (benign tumour) [14] | Hepatotoxicity (cirrhosis) [15] | Hepatotoxicity (severe hepatitis) ([6]; Liver) | Hepatotoxicity (moderate) ([7]; Liver) | Hepatotoxicity (acute) ([11]; Liver)
Clc1ccc(COC(Cn2ccnc2)c2ccc(Cl)cc2Cl)cc1 (stereo not given) [ECONAZOLE] | 0 | 0 | 0 | 0 | 0 | 0 | 0% | 0 | 1 | 0 | 0% | 1 | 4 months | 0 | 0 |  |  | 
CC(=O)[C@H]1CC[C@H]2[C@@H]3CC[C@@H]4C[C@H](O)CC[C@]4(C)[C@H]3CC[C@]12C [ELTANOLONE] | 0 | 0 | 0 | 0 | 0 | 0 | 12.6% | 0 | 0 | 0 | 0% | 2 | 1 days | 0 | 0 |  |  | 
CCn1cc(C(=O)O)c(=O)c2cc(F)c(N3CCNCC3)nc21 [ENOXACIN] | 1 | 0 | 0 | 0 | 0 | 0 | 3.3% | 0 | 1 | 0 | 0% | 6 | 9 days | 0 | 0 |  |  | 
COc1cc2oc(=O)c(C)c(C)c2cc1OCCCN1CCN(c2ccccc2OC)CC1 [ENSACULIN] | 0 | 0 | 0 | 0 | 0 | 0 | 8.3% | 0 | 0 | 0 | 0% | 1 | 2 weeks | 0 | 0 |  |  | 
CCN(CC)C(=O)/C(C#N)=C/c1cc(O)c(O)c([N+](=O)[O-])c1 [ENTACAPONE] | 2 | 0 | 0 | 0 | 0 | 0 | 0% | 0 | 2 | 0 | 0% | 1 | 2 weeks - 6 weeks | 0 | 0 |  |  | 
CCC1(C)CC(=O)NC1=O (stereo not given) [ETHOSUXIMIDE] | 0 | 0 | 0 | 0 | 0 | 0 | 0% | 0 | 0 | 0 | 0% | 2 | 1 month | 0 | 0 |  |  | 
CCNC1=Nc2ccc(Cl)cc2C(C)(c2ccccc2)O1 (stereo not given) [ETIFOXINE] | 0 | 0 | 1 | 0 | 0 | 0 | 0% | 0 | 1 | 0 | 0% | 0 | 11 days | 0 | 0 |  |  | 
CCOC(=O)c1cncn1[C@H](C)c1ccccc1 [ETOMIDATE] | 0 | 0 | 0 | 0 | 0 |  |  | 0 | 0 | 0 |  | 1 | 3 days - 5 days | 0 | 0 | 0 | 5% | 0%
NC(=O)OCC(COC(N)=O)c1ccccc1 [FELBAMATE] | 0 | 0 | 2 | 0 | 0 | 3 | 7.1% | 0 | 4 | 0 | 0% | 4 | 13 days - 6 months | 0 | 0 |  |  | 
COc1ccc(OC[C@H]2CN(C)CC[C@@H]2c2ccccc2)cc1 [FEMOXETINE] | 0 | 0 | 1 | 0 | 0 | 1 | 0% | 0 | 1 | 0 | 0% | 0 | 5 months | 0 | 0 |  |  | 
CC1=C(/C=C/C(C)=C/C=C/C(C)=C/C(=O)Nc2ccc(O)cc2)C(C)(C)CCC1 [FENRETINIDE] | 0 | 0 | 0 | 0 | 0 | 0 | 12.8% | 0 | 0 | 0 | 0% | 3 | 1 week | 0 | 0 |  |  | 
